The subject of data set [1] is Mus musculus. Briefly: In vivo inhibition of IRE1alpha in SCID mouse xenografted with human KMS-11 cells assessed as suppression of XBP1 level in tumor at 250 mg/kg, po BID measured upto 12 hrs. The format is functional, organism-based. (In general: Xenograft models place foreign cells or tissue in a host animal.)
Data set [2] is described as follows: Toxicity in Sprague-Dawley rat assessed as decrease in thymic lymphoid depletion at 500 mg/kg, po administered twice daily for 7 days. The class given is organism-based. The following applies: in vivo, 168 h, time 7 day.
Data set [3] in a line: Volume of distribution at steady state in CD-1 mouse at 10 mg/kg, po or 1 mg/kg, iv measured upto 24 hrs by LC-MS/MS analysis. The format is ADME, organism-based. The following applies: in vivo.
Data set [4] is described as follows: AUC in Sprague-Dawley rat at 500 mg/kg, po administered twice daily for 7 days. The class given is ADME, organism-based. Particulars: in vivo, time 7 day.
The nature of data set [5]: Half-life in CD-1 mouse at 10 mg/kg, po or 1 mg/kg, iv measured upto 24 hrs by LC-MS/MS analysis. The format is ADME, organism-based. The following applies: in vivo.
A short description of data set [6]: Toxicity in Sprague-Dawley rat assessed as increase in hepatic weight at >= 150 mg/kg, po administered twice daily for 7 days. The format is organism-based. The following applies: in vivo, 168 h, time 7 day.
The target in data set [7] is T1, Serine/threonine-protein kinase/endoribonuclease IRE1 (Homo sapiens, UniProt O75460). Briefly: Inhibition of IRE1alpha RNase activity (unknown origin) using XBP1 as substrate preincubated for 1 hr followed by thapsigargin stimulation for 5 hrs under FCS medium by One-Glo luciferase reagent based luminescence assay.
Target sequence in this assay (O75460 whole entry): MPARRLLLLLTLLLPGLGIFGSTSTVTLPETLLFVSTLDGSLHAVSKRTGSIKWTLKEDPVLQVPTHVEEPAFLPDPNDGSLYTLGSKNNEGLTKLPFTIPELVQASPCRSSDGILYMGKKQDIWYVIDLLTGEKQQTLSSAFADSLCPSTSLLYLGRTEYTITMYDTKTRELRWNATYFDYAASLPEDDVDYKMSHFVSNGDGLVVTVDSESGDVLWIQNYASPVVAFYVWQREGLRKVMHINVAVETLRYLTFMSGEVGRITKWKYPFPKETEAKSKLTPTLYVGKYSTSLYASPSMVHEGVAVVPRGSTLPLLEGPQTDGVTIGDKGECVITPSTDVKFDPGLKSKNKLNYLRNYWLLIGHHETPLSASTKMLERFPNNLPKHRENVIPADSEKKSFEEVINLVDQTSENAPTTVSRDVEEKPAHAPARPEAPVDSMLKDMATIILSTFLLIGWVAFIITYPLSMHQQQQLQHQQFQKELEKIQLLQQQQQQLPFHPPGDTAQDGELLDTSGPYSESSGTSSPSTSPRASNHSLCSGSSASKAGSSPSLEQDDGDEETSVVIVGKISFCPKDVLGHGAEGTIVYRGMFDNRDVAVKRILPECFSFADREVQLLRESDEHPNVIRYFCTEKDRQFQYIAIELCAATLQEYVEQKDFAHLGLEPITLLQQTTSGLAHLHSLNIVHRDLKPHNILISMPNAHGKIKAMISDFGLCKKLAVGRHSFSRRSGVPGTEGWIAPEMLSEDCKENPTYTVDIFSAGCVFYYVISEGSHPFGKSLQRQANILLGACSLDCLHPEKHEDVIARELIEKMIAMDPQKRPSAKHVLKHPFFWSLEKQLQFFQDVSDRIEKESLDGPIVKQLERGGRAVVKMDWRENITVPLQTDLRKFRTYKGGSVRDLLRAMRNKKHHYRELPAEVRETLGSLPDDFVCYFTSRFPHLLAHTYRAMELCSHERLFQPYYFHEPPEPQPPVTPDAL
In data set [8] the target is T1, Serine/threonine-protein kinase/endoribonuclease IRE1. Briefly: Inhibition of IRE1alpha in human KMS-11 cells assessed as reduction in XBP1 splicing preincubated for 24 hrs followed by thapsigargin addition and measured after 30 mins by luminescence assay. The class given is cell-based.
Data set [9] has as its system Mus musculus. Kind of data set: In vivo inhibition of IRE1alpha in SCID mouse xenografted with human KMS-11 cells assessed as suppression of XBP1 level in tumor at 250 mg/kg, po BID measured after 16 to 24 hrs. The format is functional, organism-based. Particulars: time 16-24 hrs.
Data set [10] can be described thus: Selectivity ratio of inhibition of HIPK4 (unknown origin) to inhibition of IRE1alpha (unknown origin).
Data set [11] is described as follows: AUC in Sprague-Dawley rat at >= 150 mg/kg, po administered twice daily for 7 days. The class given is ADME, organism-based. The following applies: in vivo, time 7 day.
A short description of data set [12]: Apparent permeability across apical to basolateral side in MDCK cells at 10 uM incubated for 3 hrs by LC-MS/MS method. The class given is ADME, cell-based, Canis lupus familiaris. Particulars: dog.
Data set [13] deals with T1, Serine/threonine-protein kinase/endoribonuclease IRE1. Kind of data set: Inhibition of IRE1alpha RNase activity (unknown origin) using XBP1 as substrate preincubated for 1 hr followed by thapsigargin stimulation for 5 hrs by One-Glo luciferase reagent based luminescence assay.
Target sequence in this assay (O75460 whole entry): as above
Data set [14] has the same target. Kind of data set: Inhibition of IRE1alpha RNase activity (Q470 to L977 residues) (unknown origin) expressed in Sf9 cells using mini-XBP-1 stem-loop RNA as substrate measured every 2 mins interval for 50 mins by FRET assay.
Target sequence in this assay (O75460 whole entry): as above
The target is the same in data set [15]. Kind of data set: Inhibition of His-tagged IRE1alpha (G547 to L977 residues) (unknown origin) expressed in Sf9 cells preincubated with anti-His Europium labeled antibody for 1 hr prior to compound addition followed by tracer 236 addition and measured after 1 hr by TR-FRET assay.
Target sequence in this assay (O75460 whole entry): as above
Data set [16] can be described thus: Toxicity in Sprague-Dawley rat assessed as decrease in thymus weight at 500 mg/kg, po administered twice daily for 7 days. The format is organism-based. Particulars: in vivo, 168 h, time 7 day.
Data set [17] in a line: Cmax in Sprague-Dawley rat at 500 mg/kg, po administered twice daily for 7 days. The following applies: in vivo, time 7 day. The format is ADME, organism-based.
Data set [18] can be described thus: Bioavailability in CD-1 mouse at 10 mg/kg, po or 1 mg/kg, iv measured upto 24 hrs by LC-MS/MS analysis. The format is ADME, organism-based. The following applies: in vivo.
A short description of data set [19]: Plasma protein binding in mouse incubated for 4 hrs by LC-MS/MS based rapid equilibrium dialysis method. The format is ADME, cell-free. Particulars: read-out: PPB (converted).
A short description of data set [20]: Toxicity in Sprague-Dawley rat assessed as tolerability upto 500 mg/kg, po administered twice daily for 7 days. The class given is organism-based. The following applies: in vivo, 168 h, time 7 day.
Data set [21] concerns the target T1, Serine/threonine-protein kinase/endoribonuclease IRE1. Kind of data set: Inhibition of IRE1alpha in human KMS-11 cells assessed as reduction in XBP1 splicing preincubated for 24 hrs followed by thapsigargin addition and measured after 30 mins under FCS medium by luminescence assay. The class given is cell-based.
Data set [22] is described as follows: Cmax in Sprague-Dawley rat at >= 150 mg/kg, po administered twice daily for 7 days. The class given is ADME, organism-based. Particulars: in vivo, time 7 day.
Data set [23] is described as follows: Kinetic solubility of compound at pH 7.4. Particulars: buffer, read-out: Kinetic_solubility. The class given is physicochemical.
Data set [24] can be described thus: Toxicity in Sprague-Dawley rat assessed as hepatocellular hypertrophy at >= 150 mg/kg, po administered twice daily for 7 days. The format is organism-based. Particulars: in vivo, 168 h, time 7 day.
Data set [25] can be described thus: Toxicity in Sprague-Dawley rat assessed as increase in hepatic enzyme level at 500 mg/kg, po administered twice daily for 7 days. The format is organism-based. Particulars: in vivo, 168 h, time 7 day.
Data set [26] is described as follows: Permeability across apical to basolateral side in MDCK cells. The format is ADME, cell-based, Canis lupus familiaris. The following applies: dog, read-out: permeability.

Values after ≈ are worked out from the molar mass of the structure shown. Active and inactive are the calls of the source. No cut-off for these calls is given here.

On to `O=S(=O)(Cc1ccccc1)Nc1c(F)cc(Oc2ncccc2-c2ccnc(N[C@@H]3CNC[C@@H](F)C3)n2)c(F)c1F`, for which the inhibition result with Mus musculus [1] was “Active”. The Activity result in data set [2] was “Toxic”; in data set [6], “Toxic”; in data set [16], “Toxic”; in data set [20], “Non-Toxic”; in [24], “Toxic”; in data set [25] it was “Toxic”. For the same compound, the Vdss in [3] was 1.05 L/kg. Moreover, the exposure (AUC) (commonly the area under the concentration-time curve, a measure of exposure) at 168 h in data set [4] worked out at 909 µg·h/mL; in [11] it was 170 µg·h/mL. The half-life (usually the time in which the quantity being followed falls by half) in data set [5] was 33 min. Further, the IC50 (as a rule, the midpoint of a concentration-inhibition curve) in data set [7] amounted to 4 nM; in data set [8], 64 nM; in data set [13], 32 nM; in [14], 4.3 nM; in [15], 0.27 nM; in data set [21], 8 nM. The results for the IC90 in [8] (time 24.5 hrs) and in data set [21] (time 24.5 hrs) were 650 nM and 79 nM, respectively. Further, the inhibition result in the data set with Mus musculus [9] was “inactive”. Moreover, the Selectivity ratio in data set [10] stood at 83. Further, the Papp A→B at 3 h, 10 µM in [12] is 8.7 ×10⁻⁶ cm/s. The Cmax (commonly the highest concentration seen after dosing) in data set [17] turned out to be 104 µg/mL; in [22], 28.9 µg/mL. Moreover, the bioavailability in data set [18] came out at 149%. The fraction unbound at 4 h in [19] is 0.029. The solubility kinetic in data set [23] came to 65 µM (≈ 38.3 µg/mL).
In the case of `Cc1ccc2c(NS(=O)(=O)c3ccccc3Cl)cccc2c1Oc1ncccc1-c1ccnc(N[C@H]2CCCNC2)n1`, the results for the IC50 in data set [13], in [14] and in [15] were 40 nM, 9.2 nM and 0.48 nM, respectively. Besides, in [26], the Papp A→B came out at 1 ×10⁻⁶ cm/s.

The record behind these values is ChEMBL document CHEMBL5512667, “Discovery of Potent, Selective, and Orally Available IRE1α Inhibitors Demonstrating Comparable PD Modulation to IRE1 Knockdown in a Multiple Myeloma Model” (J Med Chem, 2024).
